Measured values taken from article PMC11407758, “Integrated stress response (ISR) activation and apoptosis through HRI kinase by PG3 and other p53 pathway-restoring cancer therapeutics” (Oncotarget, 2024).
Read-outs that look alike come from different tables or passages of the source.

Legend:
Type in all cases: cell-based, human
[1] = tested on: GCN2, PKR, eIF2α, ATF4, CHOP in HT29 cells; assay: Western blot, ISR kinases / eIF2α / ATF4 / CHOP
Method: Figure 7 PG3 induces upregulation of ATF4 through ISR via HRI. (A) HT29 cells were treated with PG3, GSK2606414, TG and ONC201 respectively, or co-treatment with PG3/GSK2606414, PG3/TG, and PG3/ONC201 for 15 h. (B) MEF, MEF^PERK−/− and MEF^GCN2−/− cells were treated with PG3 and ONC201 for 16 hours. (C) HT29 cells were transfected with siControl, siPKR, siHRI and siPKR/siHRI for 24 hours and then treated with PG3 for 16 hours. (D) HCT116 p53^−/− cells were transfected with siControl and siHRI for 24 hours and then treated with PG3 for 16 hours. (E) HCT116 p53^−/− cells were treated with PG3 and ONC201 for indicated times. (F) PANC1-sgCtrl, -sgHRI and -sgPKR cell lines were treated with PG3 and imipridones (ONC201, ONC206 and ONC212) for 16 hours. Western blot was performed using indicated antibodies. (G) Proposed model of PG3-induced cell apoptosis through HRI/ATF4/PUMA axis. Abbreviation: L.E.: Long exposure.
(§1) After treatment, protein lysates were collected for Western blot analysis. A total of 15 μg of protein was used for SDS-PAGE. After primary and secondary antibody incubations, the signal was detected by a chemiluminescence detection kit, imaged by Syngene (Imgen Technologies). Antibodies for NAG-1 (GDF15) and P53 were from Santa Cruz Biotechnology; for caspase 8, cleaved caspase 8, caspase 9, caspase 3, cleavage PARP, eIF2α, p-eIF2α (Ser51), CHOP, ATF4, DR5, and PUMA were from Cell Signaling Technology. Noxa and p21 were from Calbiochem. Ran was from BD Biosciences.
(§2) Supplementary Figure 2: ROS and NO are not responsible for PG3-induced HRI activation. (A, B) cells were pre-treated
(§3) with ZnPP, L-NMMA, SA and NAC for 2 hours respectively, and then ONC201 or PG3 was added to the medium for 24 hour treatment.
(§4) Western blot was performed using indicated antibodies.
(§5) (1 picture or pasted object on this page, not shown here)

ALAS1, UROD = assay: Western blot, heme biosynthesis enzymes
Method: Figure 8 Inhibition of heme biosynthesis leads to upregulation of ATF4. (A) HT29 cells were treated with SA and ONC201 for 20 hours. Western blotting was performed using the indicated antibodies. (B) HT29 cells were transfected with siCtrl, siHRI, siClpX, siALAS1, siClpX/siALAS1 and siClpX/siALAS1/siHRI for 48 hours. (C) HT29 cells were transfected with siCtrl, siLonP1, siClpP for 24 or 48 hours respectively, and then treated with ONC201 for 24 hours. (D) Proposed model of ONC201-induced cell apoptosis through ClpP/ALAS1/HRI/ATF4 axis. (E, F) Silencing of ClpP in HCT116 p53^−/− and MDA-MB-468 cells and then treated with PG3, PG3-Oc and ONC201. Western blot was performed using indicated antibodies.
as §1, §2, §3, §4, §5

[2] = tested on: HCT116 (wild-type), SW480 (R273H, P309S), and DLD1 (S241F); assay: Cell viability assay in colorectal cancer cell lines (Figure 1E); conditions: 72 h
Method: Figure 1 PG3 inhibits cell proliferation and growth in a p53-indepent manner. (A–E) Cell viability assay, dose response curves and IC50 value measurements in a panel of cancer cell lines and normal cells. Cells were treated with different concentrations of PG3, PG3-Oc (Oc), obatoclax (Ob), prodigiosin (P) or DMSO for 72 h. Luciferase activity was imaged by the IVIS Imaging System after treatment. Cell viability data were normalized to those of DMSO treatment control in each cell line and data analyses were performed using PRISM4 software. IC50 data are expressed as the mean ±SD (normal; n = 3).
Cells were seeded in 96-well plates (6 × 10^3 cells/well). Cells were treated with different concentrations of compounds or dimethyl sulfoxide (DMSO) as a control for 72 hours. The cell viability was assessed by CellTiterGlo bioluminescent cell viability assay (Promega), following the manufacturer’s protocol. Bioluminescence imaging was measured using the IVIS imager. The percentage of cell viability (mean ± SEM) at each dose was calculated against the respective DMSO control. The IC50 values were determined from the sigmoidal dose-response curves using GraphPad Prism.

## CC(=O)CC(=O)CCC(=O)O [SA, Succinylacetone]
[1]; HT29, 20 hours, comparable to ONC201
  eIF2α phosphorylation, ATF4 and CHOP: eIF2α phosphorylation and upregulation of ATF4 and CHOP
ALAS1, UROD; HT29, 20 hours
  ALAS1 protein level: upregulation of ALAS1

## prodigiosin
[2]
  potency compared among PG3-Oc, prodigiosin and Obatoclax: same potency

## COC1=CC(c2cc3ccccc3[nH]2)=N/C1=C\c1[nH]c(C)cc1C [Obatoclax]
[2]
  potency compared among PG3-Oc, prodigiosin and Obatoclax: same potency

## Cc1ccccc1CN1C(=O)C2=C(CCN(Cc3ccccc3)C2)N2CCN=C12 [ONC201]
[1]
  phosphorylation of GCN2 and PKR: does not increase phosphorylation
ALAS1, UROD
  ALAS1 protein level: potent downregulation and inhibition of ALAS1
  UROD protein levels: do not have any effects
